Drawing on patent US20260217673A1, “NOVEL COMPOUND AS RON INHIBITOR” (LG CHEM, LTD., priority 2022, published 2026), this text covers IC50 for 18 molecules.

One test concerns the target RON (Homo sapiens, UniProt Q04912). Briefly: RON inhibitory activity, TR-FRET kinase assay. In kind it is biochemical. Particulars: RON protein, ULight-labeled Poly GT substrate. On the procedure: To measure the RON inhibitory activity of the example compounds, the IC50 of the compounds was measured using time-resolved fluorescence energy transfer (TR-FRET).
Specifically, the compound was prepared at a concentration of 1 mM with 100% DMSO and serially diluted 10 times through 3-fold dilution. 2 μl of the serially diluted compound was added to a 96-well plate containing 48 μl of 1× kinase reaction buffer (50 mM HEPES (pH 7.4), 0.01% Tween-20, 5 mM DTT, 0.5 mM Na3VO4, 2 mM EGTA, 10 mM MgCl2).
The RON protein was diluted with a RON storage buffer (50 mM Tris-HCl (pH 7.5), 150 mM NaCl, 0.5 mM EDTA, 0.02% Triton X-100) to a concentration of 49.3 nM, and then diluted again with 1× kinase reaction buffer to be 0.4 nM. As a substrate cocktail, a RON-specific substrate mixture (40 μM ULight-labeled Poly GT, 100 nM ATP) was prepared at a concentration twice the final reaction concentration.
(§1) After that, a 384-well plate was prepared, and 2.5 μl of the diluted example compound was added to each of the experimental group wells, and 2.5 μl of a 4% DMSO solution was dispensed into high control wells and low control wells.
(§2) Afterward, 2.5 μl of 0.4 nM RON was dispensed into the high control wells and the experimental group wells, and 2.5 μl of 1× kinase reaction buffer was added to the low control wells, and after centrifugation at 1000 RPM for 40 seconds at room temperature, the mixtures were incubated at room temperature for 20 to 30 minutes. Then, 5 μl of the substrate cocktail (2×) was dispensed into all wells, and after centrifugation at 1000 RPM for 40 seconds at room temperature, the mixtures were incubated at room temperature for 60 minutes. Afterward, 5 μl of 30 mM EDTA was added to all wells to terminate the reaction, and the mixtures were incubated again at room temperature for 5 minutes. Thereafter, 5 μl of 4× phosphotyrosine antibodies (Perkin Elmer) containing europium was added to all wells and incubated at room temperature for 60 minutes. After the incubation, the 384-well-plate was read with a Vison plate reader. At this time, the excitation wavelength was 340 nm, and the emission wavelengths were 620 nm and 665 nm. The IC50 value of each example compound was derived using the GraphPd Prism7 program.
A general note: TR-FRET usually uses a lanthanide donor and a delayed reading to cut background.

The next test has as its target cMET (Homo sapiens, UniProt P08581). Nature of the test: MET (cMET) enzyme inhibitory activity, TR-FRET kinase assay. Particulars: cMET protein, TK peptide substrate. In kind it is biochemical. On the procedure: In addition, to measure cMET enzyme activity inhibition, an experiment was performed by the same method as the experiment for measuring the RON enzyme activity inhibition.
Specifically, the compound was prepared at a concentration of 1 mM with 100% DMSO and serially diluted 10 times through 3-fold dilution. 2 μl of the serially diluted compound was added to a 96-well plate containing 48 μl 1× kinase reaction buffer (50 mM HEPES (pH 7.4), 0.05% BSA, 0.005% Tween-20, 1 mM DTT, 0.5 mM MnCl2, 20 mM MgCl2).
The cMET protein was diluted in a cMET storage buffer (50 mM Tris-HCl (pH 7.5), 150 mM NaCl, 0.05% Brij35, 1 mM DTT, 10% glycerol) to a concentration of 263 nM, and then diluted again with 1× kinase reaction buffer to 2 nM. As a substrate cocktail, a MET-specific substrate mixture (5 μM TK peptide, 10 mM ATP) was prepared at a concentration twice the final reaction concentration.
as §1
as §2, with “μl of 2 nM cMET” for “μl of 0.4 nM RON”, “2 nM cMET was dispensed” for “0.4 nM RON was dispensed”, “was dispensed to the high” for “was dispensed into the high”, “μl of 90 mM EDTA” for “μl of 30 mM EDTA”

pIC50: −log10 of the molar value.

RON, sequence (Q04912 25-1400, species assumed): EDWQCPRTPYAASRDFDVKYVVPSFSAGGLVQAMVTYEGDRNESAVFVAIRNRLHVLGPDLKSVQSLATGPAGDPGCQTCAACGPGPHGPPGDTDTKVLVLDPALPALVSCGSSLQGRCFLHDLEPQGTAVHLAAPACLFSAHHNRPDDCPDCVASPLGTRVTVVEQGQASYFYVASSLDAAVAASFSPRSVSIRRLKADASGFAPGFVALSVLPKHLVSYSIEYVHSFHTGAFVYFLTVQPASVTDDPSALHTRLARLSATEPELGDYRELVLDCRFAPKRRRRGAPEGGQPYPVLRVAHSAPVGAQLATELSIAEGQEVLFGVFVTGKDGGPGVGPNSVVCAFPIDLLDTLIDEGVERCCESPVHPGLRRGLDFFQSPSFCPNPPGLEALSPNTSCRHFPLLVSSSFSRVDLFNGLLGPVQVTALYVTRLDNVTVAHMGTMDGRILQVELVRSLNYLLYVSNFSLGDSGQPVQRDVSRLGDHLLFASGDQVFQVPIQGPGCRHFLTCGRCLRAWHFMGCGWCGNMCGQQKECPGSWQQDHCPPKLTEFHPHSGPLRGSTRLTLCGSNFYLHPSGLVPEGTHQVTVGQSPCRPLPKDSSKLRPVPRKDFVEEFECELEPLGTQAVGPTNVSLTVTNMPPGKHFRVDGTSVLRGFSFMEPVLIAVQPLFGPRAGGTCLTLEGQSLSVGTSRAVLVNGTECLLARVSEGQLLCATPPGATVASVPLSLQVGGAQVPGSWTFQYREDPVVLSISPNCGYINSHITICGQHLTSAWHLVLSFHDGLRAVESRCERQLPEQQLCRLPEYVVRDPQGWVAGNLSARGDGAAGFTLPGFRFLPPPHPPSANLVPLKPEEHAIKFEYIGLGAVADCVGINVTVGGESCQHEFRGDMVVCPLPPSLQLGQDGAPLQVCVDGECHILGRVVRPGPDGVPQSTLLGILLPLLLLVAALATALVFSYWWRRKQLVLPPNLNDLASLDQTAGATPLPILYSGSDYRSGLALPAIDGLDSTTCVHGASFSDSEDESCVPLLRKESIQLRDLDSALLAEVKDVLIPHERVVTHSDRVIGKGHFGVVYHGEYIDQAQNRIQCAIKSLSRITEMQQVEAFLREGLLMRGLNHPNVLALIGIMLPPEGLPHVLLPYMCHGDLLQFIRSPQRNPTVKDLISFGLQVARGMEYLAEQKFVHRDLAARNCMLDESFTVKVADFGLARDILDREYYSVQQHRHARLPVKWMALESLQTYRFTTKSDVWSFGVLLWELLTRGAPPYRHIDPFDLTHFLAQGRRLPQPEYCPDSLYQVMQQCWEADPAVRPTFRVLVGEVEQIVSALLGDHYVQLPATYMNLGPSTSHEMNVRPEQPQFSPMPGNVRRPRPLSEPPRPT
cMET, sequence (P08581 25-1390): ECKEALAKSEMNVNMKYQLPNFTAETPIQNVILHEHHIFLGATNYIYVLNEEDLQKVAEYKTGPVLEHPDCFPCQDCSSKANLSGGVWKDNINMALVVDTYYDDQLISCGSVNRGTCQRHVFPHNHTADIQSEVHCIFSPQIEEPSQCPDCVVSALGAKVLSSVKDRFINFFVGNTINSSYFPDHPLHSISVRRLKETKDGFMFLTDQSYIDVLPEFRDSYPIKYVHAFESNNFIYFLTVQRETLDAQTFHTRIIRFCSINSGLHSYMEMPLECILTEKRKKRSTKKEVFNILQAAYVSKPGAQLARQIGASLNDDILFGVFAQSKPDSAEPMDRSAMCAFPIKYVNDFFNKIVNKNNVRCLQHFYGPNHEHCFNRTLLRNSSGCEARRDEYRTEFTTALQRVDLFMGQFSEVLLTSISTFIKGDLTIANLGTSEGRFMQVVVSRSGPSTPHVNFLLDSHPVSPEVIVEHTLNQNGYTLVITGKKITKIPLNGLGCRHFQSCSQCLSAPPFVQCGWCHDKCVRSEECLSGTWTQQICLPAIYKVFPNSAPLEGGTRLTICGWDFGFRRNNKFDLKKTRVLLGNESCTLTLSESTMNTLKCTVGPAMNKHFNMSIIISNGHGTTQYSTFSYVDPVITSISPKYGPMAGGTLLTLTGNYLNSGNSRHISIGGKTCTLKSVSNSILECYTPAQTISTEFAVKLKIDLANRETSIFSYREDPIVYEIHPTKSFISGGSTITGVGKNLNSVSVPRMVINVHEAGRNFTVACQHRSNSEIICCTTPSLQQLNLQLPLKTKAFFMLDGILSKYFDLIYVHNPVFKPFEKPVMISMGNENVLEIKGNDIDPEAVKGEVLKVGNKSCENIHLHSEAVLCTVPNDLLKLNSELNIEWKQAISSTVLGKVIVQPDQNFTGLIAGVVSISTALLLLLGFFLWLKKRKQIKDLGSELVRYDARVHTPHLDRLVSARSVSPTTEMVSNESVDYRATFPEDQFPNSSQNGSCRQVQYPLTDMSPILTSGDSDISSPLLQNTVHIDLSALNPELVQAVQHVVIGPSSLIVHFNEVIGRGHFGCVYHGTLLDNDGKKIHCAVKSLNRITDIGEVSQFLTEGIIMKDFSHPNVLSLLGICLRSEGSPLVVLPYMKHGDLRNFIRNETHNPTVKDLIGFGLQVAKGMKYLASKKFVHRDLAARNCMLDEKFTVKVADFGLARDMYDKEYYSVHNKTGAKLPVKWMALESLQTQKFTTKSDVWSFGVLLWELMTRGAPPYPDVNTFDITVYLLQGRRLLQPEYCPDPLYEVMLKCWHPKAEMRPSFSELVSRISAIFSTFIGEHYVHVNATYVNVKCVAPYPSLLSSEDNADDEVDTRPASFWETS

As usually defined, the pIC50 is the negative decadic logarithm of the IC50, by convention in mol/L. A high value points to a low IC50. In the case of `Nc1nccc(Oc2c(F)cc(NC(=O)c3cnn(-c4ncccc4F)c3C(F)(F)F)cc2F)c1C1CC1` [Example 38, N-(4-((2-amino-3-cyclopropylpyridin-4-yl)oxy)-3,5-difluorophenyl)-1-(3-fluoropyridin-2-yl)-5-(trifluoromethyl)-1H-pyrazole-4-carboxamide], the negative-log IC50 (pIC50) against RON was greater than 7.30; against cMET it was 5.30 to 6.30.
In the same order, the values of `Nc1nccc(Oc2c(F)cc(NC(=O)c3cnn(-c4ncccc4Cl)c3C(F)(F)F)cc2F)c1C1CC1` [Example 39, N-(4-((2-amino-3-cyclopropylpyridin-4-yl)oxy)-3,5-difluorophenyl)-1-(3-chloropyridin-2-yl)-5-(trifluoromethyl)-1H-pyrazole-4-carboxamide] are greater than 7.30 and 5.30 to 6.30.
With `Nc1nccc(Oc2c(F)cc(NC(=O)c3cnn(-c4ccccn4)c3C(F)(F)F)cc2F)c1C1CC1` [Example 40, N-(4-((2-amino-3-cyclopropylpyridin-4-yl)oxy)-3,5-difluorophenyl)-1-(pyridin-2-yl)-5-(trifluoromethyl)-1H-pyrazole-4-carboxamide], the negative-log IC50 (pIC50) against RON is greater than 7.30; against cMET, 5.30 to 6.30.
The matching figures for `Nc1nccc(Oc2c(F)cc(NC(=O)c3cnn(-c4ncccn4)c3C(F)(F)F)cc2F)c1C1CC1` [Example 41, N-(4-((2-amino-3-cyclopropylpyridin-4-yl)oxy)-3,5-difluorophenyl)-1-(pyrimidin-2-yl)-5-(trifluoromethyl)-1H-pyrazole-4-carboxamide]: greater than 7.30 and 5.30 to 6.30.
With `Nc1nccc(Oc2c(F)cc(NC(=O)c3cnn(-c4cccnn4)c3C(F)(F)F)cc2F)c1C1CC1` [Example 42, N-(4-((2-amino-3-cyclopropylpyridin-4-yl)oxy)-3,5-difluorophenyl)-1-(pyridazin-3-yl)-5-(trifluoromethyl)-1H-pyrazole-4-carboxamide], the pIC50 against RON was greater than 7.30; on cMET, 5.30 to 6.30.
With `CC(C)c1c(Oc2c(F)cc(NC(=O)c3cnn(-c4ccccc4)c3C(F)(F)F)cc2F)ccnc1N` [Example 43, N-(4-((2-amino-3-isopropylpyridin-4-yl)oxy)-3,5-difluorophenyl)-1-phenyl-5-(trifluoromethyl)-1H-pyrazole-4-carboxamide], the pIC50 against RON is greater than 7.30; against cMET, 5.30 to 6.30.
In the same order, the values of `CC(C)c1c(Oc2c(F)cc(NC(=O)c3cnn(-c4ncccc4Cl)c3C(F)(F)F)cc2F)ccnc1N` [Example 44, N-(4-((2-amino-3-isopropylpyridin-4-yl)oxy)-3,5-difluorophenyl)-1-(3-chloropyridin-2-yl)-5-(trifluoromethyl)-1H-pyrazole-4-carboxamide] are greater than 7.30 and 5.30 to 6.30.
In the same order, the values of `CC(C)c1c(Oc2c(F)cc(NC(=O)c3cnn(-c4ncccn4)c3C(F)(F)F)cc2F)ccnc1N` [Example 45, N-(4-((2-amino-3-isopropylpyridin-4-yl)oxy)-3,5-difluorophenyl)-1-(pyrimidin-2-yl)-5-(trifluoromethyl)-1H-pyrazole-4-carboxamide] are greater than 7.30 and 5.30 to 6.30.
The matching figures for `CC(C)c1c(Oc2c(F)cc(NC(=O)c3cnn(-c4ncccc4F)c3C(F)(F)F)cc2F)ccnc1N` [Example 46, N-(4-((2-amino-3-isopropylpyridin-4-yl)oxy)-3,5-difluorophenyl)-1-(3-fluoropyridin-2-yl)-5-(trifluoromethyl)-1H-pyrazole-4-carboxamide]: greater than 7.30 and 5.30 to 6.30.
Regarding `Nc1nccc(Oc2c(F)cc(NC(=O)c3cnn(-c4ncccc4F)c3C(F)(F)F)cc2F)c1CN1CCOCC1` [Example 47, N-(4-((2-amino-3-(morpholinomethyl)pyridin-4-yl)oxy)-3,5-difluorophenyl)-1-(3-fluoropyridine-2-yl)-5-(trifluoromethyl)-1H-pyrazole-4-carboxamide], the pIC50 was greater than 7.30 against RON and 5.30 to 6.30 at cMET.
Turning to `Nc1nccc(Oc2c(F)cc(NC(=O)c3cnn(-c4ncccn4)c3C(F)(F)F)cc2F)c1CN1CCOCC1` [Example 48, N-(4-((2-amino-3-(morpholinomethyl)pyridin-4-yl)oxy)-3,5-difluorophenyl)-1-(pyrimidin-2-yl)-5-(trifluoromethyl)-1H-pyrazole-4-carboxamide], the values for the negative-log IC50 (pIC50) against RON and on cMET were greater than 7.30 and less than 5.30, respectively.
The matching figures for `Nc1nccc(Oc2c(F)cc(NC(=O)c3cnn(-c4ncccc4Cl)c3C(F)(F)F)cc2F)c1CN1CCOCC1` [Example 49, N-(4-((2-amino-3-(morpholinomethyl)pyridin-4-yl)oxy)-3,5-difluorophenyl)-1-(3-chloropyridin-2-yl)-5-(trifluoromethyl)-1H-pyrazole-4-carboxamide]: greater than 7.30 and 5.30 to 6.30.
For `Nc1nccc(Oc2c(F)cc(NC(=O)c3cnn(-c4ccccc4)c3C(F)(F)F)cc2F)c1CN1CCOCC1` [Example 50, N-(4-((2-amino-3-(morpholinomethyl)pyridin-4-yl)oxy)-3,5-difluorophenyl)-1-phenyl-5-(trifluoromethyl)-1H-pyrazole-4-carboxamide], the negative-log IC50 (pIC50) against RON is greater than 7.30; at cMET, 5.30 to 6.30.
Turning to `Nc1nccc(Oc2c(F)cc(NC(=O)c3cnn(-c4ccccc4)c3C(F)(F)F)cc2F)c1C#CCO` [Example 51, N-(4-((2-amino-3-(3-hydroxyprop-1-yn-1-yl)pyridin-4-yl)oxy)-3,5-difluorophenyl)-1-phenyl-5-(trifluoromethyl)-1H-pyrazole-4-carboxamide], the figures for the pIC50 against RON and at cMET were greater than 7.30 and 5.30 to 6.30, respectively.
The matching figures for `Nc1nccc(Oc2c(F)cc(NC(=O)c3cnn(-c4ccccn4)c3C(F)(F)F)cc2F)c1C#CCO` [Example 52, N-(4-((2-amino-3-(3-hydroxyprop-1-yn-1-yl)pyridin-4-yl)oxy)-3,5-difluorophenyl)-1-(pyridin-2-yl)-5-(trifluoromethyl)-1H-pyrazole-4-carboxamide]: greater than 7.30 and 6.30 to 7.30.
The matching figures for `Nc1nccc(Oc2c(F)cc(NC(=O)c3cnn(-c4ncccc4F)c3C(F)(F)F)cc2F)c1C#CCO` [Example 53, N-(4-((2-amino-3-(3-hydroxyprop-1-yn-1-yl)pyridin-4-yl)oxy)-3,5-difluorophenyl)-1-(3-fluoropyridin-2-yl)-5-(trifluoromethyl)-1H-pyrazole-4-carboxamide]: greater than 7.30 and 6.30 to 7.30.
In the same order, the values of `Nc1nccc(Oc2c(F)cc(NC(=O)c3cnn(-c4ncccc4Cl)c3C(F)(F)F)cc2F)c1C#CCO` [Example 54, N-(4-((2-amino-3-(3-hydroxyprop-1-yn-1-yl)pyridin-4-yl)oxy)-3,5-difluorophenyl)-1-(3-chloropyridin-2-yl)-5-(trifluoromethyl)-1H-pyrazole-4-carboxamide] are greater than 7.30 and 6.30 to 7.30.
Take `Nc1nccc(Oc2c(F)cc(NC(=O)c3cnn(-c4ncccn4)c3C(F)(F)F)cc2F)c1C#CCO` [Example 55, N-(4-((2-amino-3-(3-hydroxyprop-1-yn-1-yl)pyridin-4-yl)oxy)-3,5-difluorophenyl)-1-(pyrimidin-2-yl)-5-(trifluoromethyl)-1H-pyrazole-4-carboxamide]: the pIC50 on RON is greater than 7.30; at cMET it was 6.30 to 7.30.
